Data reported in PMC7226106, “Population Pharmacokinetics/Pharmacodynamics of Dabrafenib Plus Trametinib in Patients with BRAF-Mutated Metastatic Melanoma” (Cancers, 2020).
“Also recorded” adds a separate entry of the source. Read-outs that look alike come from different tables or passages of the source.

Key:
[1] = design: method as in earlier work; details: preclinical data; cited from earlier work
[2] = system: BRAF^V600-mutated MM patients; assay: Safety: adverse events and dose-limiting toxicities (DLT) under CombiDT; details: human, in vivo
Procedure: Patients initiated DAB at the recommended daily dose of 150 mg twice daily. In patients treated with CombiDT, TRA was started at 2 mg once daily. Reduced starting doses were allowed at physician discretion based on comorbidities and patients’ general condition. All AE were graded using the National Cancer Institute Common Toxicity Criteria v4.0. DAB treatment was continued until disease progression, unacceptable toxicity, or unfitness to receive it.

[3] = system: BRAF^V600-mutated metastatic melanoma; assay: Survival (PFS, OS) and Cox exposure-survival analysis under CombiDT; format: in vivo, human (patients); details: for Risk of Death, HR (CI95%) for AUCM3 / Risk of Progression, HR (CI95%) for AUCM3: n = 30
Procedure: (§6) Pharmacokinetic/pharmacodynamic analysis was conducted in BRAF^V600-mutated MM patients concomitantly treated with CombiDT. Regarding safety, the onset of DLT was considered as the clinical endpoint. A DLT was defined as any toxicity leading to dose reduction or temporary or permanent discontinuation of treatment. Regarding survival, the primary end point was progression free survival (PFS), the time from DAB and TRA treatment initiation to documented progression event (either clinical or radiological progression) or death from any cause. The secondary end-point was overall survival (OS), defined as the time from DAB and TRA treatment initiation to death from any cause. Radiographic evidence of progression was defined according to modified Response Evaluation Criteria in Solid Tumor (RECIST) v1.1 [41].
Multivariate Cox models according to a stepwise procedure were tested including all variables which were significant at 5% level in the univariate analyses.

[4] = Model-estimated systemic exposure (AUC) in BRAF^V600-mutated MM patients treated with CombiDT; details: for AUC: human, plasma, oral
Procedure: as §6
(§7) Systemic exposures to DAB, OHD, and TRA (AUCDAB, AUCOHD, and AUCTRA, respectively) were calculated with classic equations, composite DAB and OHD AUC (AUCDAB+OHD) as previously explained and AUCOHD/DAB as the ratio of AUCOHD over AUCDAB. Univariate Fisher and Wilcoxon models were performed to identify which parameters could contribute to the onset of DLT. The following variables were tested: sex, age at treatment initiation, BMI, Eastern Cooperative Oncology Group Performance Status (ECOG PS: grade 0-1 vs ≥2), lactate dehydrogenase (LDH) level (<1.5N vs. ≥1.5N), AUCDAB, AUDOHD, AUCDAB+OHD, and AUCTRA.
(§8) Multivariate Cox models according to a stepwise procedure were tested including all variables which were significant at 5% level in the univariate analyses. All the pharmacokinetic/pharmacodynamic analyses were performed using R program v3.6.1 with RStudio v1.1.383 (http://www.r-project.org).

[5] = Population pharmacokinetic model of trametinib (NONMEM) from plasma concentrations; format: in vivo, human (patients); details: for Vd/F: human, plasma, oral, read-out: V2/F, apparent central volume of distribution of TRA
Text: (§1) Seventy-three outpatients treated with DAB were enrolled from July 2015 to June 2017 in this observational multicentric study including three hospitals of the Assistance Publique—Hôpitaux de Paris (Cochin, Henri Mondor, and Avicenne). To be eligible, patients needed to meet the following criteria: a minimal age of 18 years, metastatic BRAF^V600-mutated solid tumors, treatment with DAB or CombiDT with at least one available DAB concentration measurement.
(§2) DAB, dabrafenib-d9 (internal standard, IS), and TRA were purchased from LGC Standards (Molsheim, France). A custom synthesis was developed by Shanghai Medicilon (Shanghai, China) for OHD. The plasma concentrations were assayed using a validated high-performance liquid chromatography-tandem mass spectrometry (HPLC-MS/MS) (ATSQ Quantum Ultra®mass spectrometer, ThermoFisher, Les Ulis, France). Chromatographic separation was performed on Accucore® C18 (2.1 × 50 mm; 2.6 µm) analytical column (ThermoFisher Scientific, Les Ulis, France) associated with a guard column packed with the same bonded phase. Two hundred microliters (µL) aliquot of plasma (calibration standard, internal quality control or patient sample) was mixed with 20 µL of IS solution. Then 600 µL acetonitrile with 1% (v/v) formic acid was added. Samples were mixed and centrifuged, and the supernatant was evaporated and recovered with 200 µL of mobile phase: water/methanol (70:30%, v/v) with formic acid (0.1% v/v). Ten microliters of this mixture were injected into the HPLC-MS/MS system. The calibration standards ranged from 10 to 2000 ng/mL for DAB and OHD and from 5 to 50 ng/mL for TRA.
(§3) Blood samples were collected in heparinized tubes during the treatment course, and the exact sample time was recorded. Plasma was separated by centrifugation (3000 rpm, 5 min), and stored at −20 °C until analysis.
(§4) The non-linear mixed effects modeling program NONMEM v7.4.1 [34] with the Perl-Speaks NONMEM (PsN) Toolkit v4.8.0 [35] was used to build DAB/OHD and TRA models. Pirana v2.9.2 was used to assist in model development. […] Molar units were used for DAB/OHD analyses. Plasma samples with concentrations below the lower limit of quantification of the assay, non-reliable time information about blood sampling, or without dose information were excluded from the analysis.
(§5) A stepwise strategy was used to identify the base models that best fitted DAB/OHD and TRA pharmacokinetic data. Different structural models such as one or two compartments, with linear absorption with or without lag time, were compared. DAB and OHD were modeled simultaneously testing multi-compartment models for both compounds. We hypothesized that DAB was cleared by complete oxidation to OHD, since it is not eliminated as unchanged molecule in urine and accounts for less than 22% in feces. Moreover, the first-order absorption rate constant (ka) of DAB was fixed to 1.8 h^−1 according to a previously published value to allow an adequate estimate of all pharmacokinetic parameters. Since DAB and TRA are administered orally, the pharmacokinetic parameters represent apparent values. Exponential errors following a log-normal distribution were assumed for the description of IIV of all the pharmacokinetic parameters. Inter-occasion variability (IOV) was tested in both DAB/OHD and TRA models to assess differences in individual parameters across study occasions. Additive, proportional, and mixed error models were compared to depict the residual unexplained variability (RUV) for both drugs and metabolite. The correlation between DAB and OHD data was tested using the L2 item in NONMEM. […]

[6] = Population pharmacokinetic model of dabrafenib/hydroxy-dabrafenib (NONMEM) from plasma concentrations; format: in vivo, human (patients)
Text: as §1, §2, §3, §4, §5

[7] = cited from earlier work
[8] = human, in vivo
Procedure: as §6, §7, §8

mutant BRAF = system: mutant BRAF; design: method as in PMID 24958809; details: in vitro study; cited from earlier work
[9] = bootstrap median (n = 500 samples)
[10] = multivariate Cox model with ECOG PS ≥2

CC(C)c1nc(-c2cccc(NS(=O)(=O)c3c(F)cccc3F)c2F)c(-c2ccnc(N)n2)s1 [desmethyl-dabrafenib]
passage of the intact blood brain barrier [1]: may cross intact blood brain barrier

CC(=O)Nc1cccc(-n2c(=O)n(C3CC3)c(=O)c3c(Nc4ccc(I)cc4F)n(C)c(=O)c(C)c32)c1 [TRA, trametinib]
median time to onset of drug-related DLT [2]: 104 days | patients in whom the drug dose was reduced [2]: 23% | patients in whom the drug was discontinued permanently [2]: 10% | patients who experienced a drug-related DLT [2]: 33% | Risk of Death, HR (CI95%) for AUCM3 ([3]; univariate Cox model): 1.37 (0.94–1.98) | Risk of Progression, HR (CI95%) for AUCM3 ([3]; univariate Cox model): 1.31 (0.93–1.83) | AUC ([4]; AUCTRA, median (range), patients with TRA-related DLT (n = 17), last AUC before onset of DLT): 0.268 µg·h/mL | AUC ([4]; AUCTRA, median (range), patients without TRA-related DLT (n = 35), average AUC over treatment course): 0.268 µg·h/mL | AUC ([4]; median AUCM3 (mean AUC during the first three months of treatment), 30 MM patients of the exposure-survival analysis): 0.292 µg·h/mL | CL/F, apparent clearance of TRA [5, 9]: 5.82 L/h | IIV CL/F, interindividual variability (coefficient of variation) [5, 9]: 28.6% | IIV Q, interindividual variability (coefficient of variation) [5, 9]: 80.1% | RUV, residual unexplained variability (additive error) [5, 9]: 4.10 ng/mL | Tlag, lag time [5, 9]: 0.728 h | ka, first order absorption rate constant [5, 9]: 1.04 h⁻¹ | IIV CL/F, interindividual variability (coefficient of variation) ([5]; final TRA model): 29.6% | IIV Q, interindividual variability (coefficient of variation) ([5]; final TRA model): 80.2% | RUV, residual unexplained variability (additive error) ([5]; final TRA model): 4.14 ng/mL | Tlag, lag time ([5]; final TRA model): 0.709 h | ka, first order absorption rate constant ([5]; final TRA model): 0.913 h⁻¹ | CL/F, apparent clearance of TRA ([5]; final TRA model, n = 60): 5.83 L/h | Vd/F [5, 9]: 65.1 L | Vd/F ([5]; final TRA model): 61.9 L

CC(C)(CO)c1nc(-c2cccc(NS(=O)(=O)c3c(F)cccc3F)c2F)c(-c2ccnc(N)n2)s1 [OHD, hydroxy-dabrafenib]
difference in pharmacokinetics ([6]; DAB monotherapy vs. combiDT (ΔOFV = −2.9, p > 0.05)): did not differ | CLm/F, apparent clearance of OHD ([6]; base DAB/OHD model): 22.8 L/h | IIV CLm/F, interindividual variability (coefficient of variation) ([6]; base DAB/OHD model): 26.8% | IIV V3/F, interindividual variability (coefficient of variation) ([6]; base DAB/OHD model): 84.0% | RUV of OHD, residual unexplained variability (proportional) ([6]; base DAB/OHD model): 53.1% | CLm/F, apparent clearance of OHD [6, 9]: 22.9 L/h | IIV CLm/F, interindividual variability (coefficient of variation) [6, 9]: 21.8% | IIV V3/F, interindividual variability (coefficient of variation) [6, 9]: 82.0% | RUV of OHD, residual unexplained variability (proportional) [6, 9]: 52.7% | θage/(CLm/F), Age effect on CLm/F [6, 9]: −0.543 | difference in pharmacokinetics ([6]; concomitant proton-pump inhibitor (PPI) intake (ΔOFV = −3.5, p > 0.05)): did not differ | CLm/F, apparent clearance of OHD ([6]; final DAB/OHD model): 23.2 L/h | IIV CLm/F, interindividual variability (coefficient of variation) ([6]; final DAB/OHD model): 24.0% | IIV V3/F, interindividual variability (coefficient of variation) ([6]; final DAB/OHD model): 47.5% | RUV of OHD, residual unexplained variability (proportional) ([6]; final DAB/OHD model): 53.1% | θage/(CLm/F), Age effect on CLm/F ([6]; final DAB/OHD model, median age 61.2 years): −0.589 | base model variance of clearance explained by covariates (sex, age) ([6]; in vivo): 20% | decrease in CLm/F ([6]; same age variation (20 to 90 years)): 51% | mean OHD-to-DAB exposure ratio in plasma [7]: 0.8 | Risk of Death, HR (CI95%) for AUCM3,OHD [3, 10]: 1.61 (1.07–2.45) | Risk of Death, HR (CI95%) for AUCM3,OHD/DAB ratio ≥ 1 [3, 10]: 10.61 (2.34–48.15) | Risk of Progression, HR (CI95%) for AUCM3,OHD ([3]; multivariate Cox model with cerebral metastases): 1.29 (0.99–1.68) | Risk of Progression, HR (CI95%) for AUCM3,OHD ([3]; multivariate Cox model with number of metastasis site ≥3): 1.27 (0.97–1.68) | Risk of Death, HR (CI95%) for AUCM3,OHD/AUCM3,DAB ratio ≥ 1 vs. < 1 ([3]; univariate Cox model): 4.11 (1.18–14.29) | Risk of Progression, HR (CI95%) for AUCM3,OHD/AUCM3,DAB ratio ≥ 1 vs. < 1 ([3]; univariate Cox model): 1.66 (0.62–4.46) | Risk of Death, HR (CI95%) for AUCM3 ([3]; univariate Cox model): 1.64 (1.09–2.48) | Risk of Progression, HR (CI95%) for AUCM3 ([3]; univariate Cox model): 1.37 (1.02–1.83) | median AUCM3 (mean AUC during the first three months of treatment) ([4]; 30 MM patients of the exposure-survival analysis): 6.082 µg·h/mL | AUCM3,OHD/AUCM3,DAB ratio ([4]; patients experiencing cerebral progression): 0.9 (0.5–1.3) | AUC, median (range) ([4]; patients with DAB-related DLT (n = 12), last AUC before onset of DLT): 7509.5 (4918–10300) ng∙h/mL | AUCM3,OHD/AUCM3,DAB ratio ([4]; patients with extra-cerebral progression): 0.8 (0.6–0.8) | AUC, median (range) ([4]; patients without DAB-related DLT (n = 40), average AUC over treatment course): 5812 (2459–10300) ng∙h/mL | median AUCOHD/AUCDAB ratio [8]: 0.80 (0.50–1.32) | passage of the intact blood brain barrier [1]: lack of OHD diffusion into the brain | potency as an inhibitor of mutant BRAF compared to DAB (mutant BRAF): two-fold higher pharmacological potency; also recorded: twofold higher potency
